Data published in US20230373934A1, “ANDROGEN RECEPTOR MODULATORS AND METHODS FOR THEIR USE” (ESSA Pharma, Inc., priority 2022, published 2023).

Molecular target: T1, androgen receptor (AR) (Homo sapiens, UniProt P10275)
T1 sequence (P10275 1-920 T878A): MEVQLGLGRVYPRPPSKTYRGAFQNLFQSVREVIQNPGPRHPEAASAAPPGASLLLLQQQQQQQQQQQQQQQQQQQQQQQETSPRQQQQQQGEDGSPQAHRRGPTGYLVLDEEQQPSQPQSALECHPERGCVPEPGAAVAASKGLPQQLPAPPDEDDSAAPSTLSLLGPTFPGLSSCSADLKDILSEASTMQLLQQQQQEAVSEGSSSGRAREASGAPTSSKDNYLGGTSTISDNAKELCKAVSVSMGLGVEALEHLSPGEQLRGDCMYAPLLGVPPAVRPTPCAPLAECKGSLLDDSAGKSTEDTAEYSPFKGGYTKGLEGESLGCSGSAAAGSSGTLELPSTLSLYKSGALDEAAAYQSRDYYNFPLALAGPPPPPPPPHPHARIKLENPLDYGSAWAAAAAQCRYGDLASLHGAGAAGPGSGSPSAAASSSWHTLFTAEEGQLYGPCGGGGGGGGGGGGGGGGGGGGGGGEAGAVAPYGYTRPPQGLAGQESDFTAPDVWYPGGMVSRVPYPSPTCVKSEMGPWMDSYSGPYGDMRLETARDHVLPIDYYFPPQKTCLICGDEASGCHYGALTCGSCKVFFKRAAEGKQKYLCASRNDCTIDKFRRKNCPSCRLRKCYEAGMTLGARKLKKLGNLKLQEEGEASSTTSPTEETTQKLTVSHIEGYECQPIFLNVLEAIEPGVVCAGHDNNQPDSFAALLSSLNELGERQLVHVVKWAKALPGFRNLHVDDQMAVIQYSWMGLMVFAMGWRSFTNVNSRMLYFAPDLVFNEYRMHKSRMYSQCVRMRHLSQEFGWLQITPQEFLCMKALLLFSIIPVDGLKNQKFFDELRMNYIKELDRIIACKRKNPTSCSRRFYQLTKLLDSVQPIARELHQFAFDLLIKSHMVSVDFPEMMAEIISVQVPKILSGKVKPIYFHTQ
Assay: Androgen-induced PSA-luciferase assay, Luciferase Assay B (cells stably expressing ARR2PB or PSA-firefly luciferase reporter, 384-well)
Format: cell-based
Details: Luciferase Assay B (Compounds A186-A219 and A221-A245); stable luciferase reporter cells, 1 h pretreatment, R1881 24 h, serum-free; read-out: PSA-Luc IC50 Range
Protocol: Luciferase Assay B: Cells stably expressing probasin promoter (ARR2PB) or human prostate-specific antigen (PSA)-firefly luciferase reporter were plated in poly-D-lysine-coated 384-well plates. 48 h after plating, cells were pretreated with vehicle or compounds for 1 h before adding R1881 under serum-free and phenol red-free conditions and then further incubated for 24 h. R1881 was added only for LNCaP cells. Firefly luciferase activities were determined by EnVision plate reader (Perkinemer) using the Steady-Glo Luciferase Reporter Assay System (Promega). Values were normalized to protein content. GraphPad Prism graphing software was used to calculate IC50 values. Luciferase Assay B was run for Compounds A186-A219 and A221-A245 in Table 2.
Statistical analyses were performed using GraphPad Prism (Version 6.01 for Windows; La Jolla, CA, USA). Comparisons between treatment and control groups were compared using Two-Way ANOVA with post-hoc Dunnett's and Tukey's tests. Differences were considered statistically significant at P values less than 0.05.

Row | Structure (SMILES) | IC50
1 | Cn1nc(NS(C)(=O)=O)c2cc(-c3ccc(Oc4cc(Cl)c(OC5CC5)c(C#N)c4)cc3)ccc21 [Compound A210] | 500 to 2000 nM
2 | CS(=O)(=O)Nc1cc(=O)n2cc(-c3ccc(Oc4cc(Cl)c(OC5CC5)c(C#N)c4)cc3)ccc2n1 [Compound A211] | > 2000 nM
3 | CS(=O)(=O)NCc1ccc(-c2ccc(Oc3cc(Cl)c(OC4CC4)c(C#N)c3)cc2)cn1 [Compound A212] | 500 to 2000 nM
4 | CS(=O)(=O)NCc1cnc(-c2ccc(Oc3cc(Cl)c(OC4CC4)c(C#N)c3)cc2)cn1 [Compound A213] | 500 to 2000 nM
5 | CS(=O)(=O)NCc1ccc(-c2ccc(Oc3cc(Cl)c(OC4CC4)c(C#N)c3)cc2)nn1 [Compound A214] | 500 to 2000 nM
6 | N#Cc1cc(Oc2ccc(-c3ccc4nc(NC5CCS(=O)(=O)CC5)cnc4c3)cc2)cc(Cl)c1OC1CC1 [Compound A215] | 500 to 2000 nM
7 | N#Cc1cc(Oc2ccc(-c3ccc4nc(NC5CS(=O)(=O)C5)cnc4c3)cc2)cc(Cl)c1OC1CC1 [Compound A216] | > 2000 nM
8 | CS(=O)(=O)Nc1cnc2cc(-c3ccc(Oc4cnc(OC5CC5)c(C#N)c4)cc3)ccc2n1 [Compound A217] | > 2000 nM
9 | CS(=O)(=O)Nc1cnc2cc(-c3ccc(Oc4cnc(OC5CC5)c(Cl)c4)cc3)ccc2n1 [Compound A218] | 500 to 2000 nM
10 | CS(=O)(=O)Nc1ccc2nc(-c3ccc(Oc4cc(Cl)c(OC5CC5)c(C#N)c4)cc3)cnc2n1 [Compound A219] | 500 to 2000 nM
11 | CS(=O)(=O)NCc1nccc(COc2ccc(N(CC(F)(F)F)c3cc(Cl)c(OC4CC4)c(C#N)c3)cc2)n1 [Compound A221] | < 500 nM
12 | CS(=O)(=O)Nc1cnc2cc(-c3ccc(N(CC(F)F)c4cc(Cl)c(OC5CC5)c(C#N)c4)cc3)ccc2n1 [Compound A222] | < 500 nM
13 | CS(=O)(=O)Nc1nccc(COc2ccc(N(CC(F)(F)F)c3cc(Cl)c(N4CCOCC4)c(C#N)c3)cc2)n1 [Compound A223] | < 500 nM
14 | CS(=O)(=O)Nc1cnc2cc(-c3ccc(N(CC(F)(F)F)c4cc(Cl)c(N5CCOCC5)c(C#N)c4)cc3)ccc2n1 [Compound A224, N-(6-(4-((3-chloro-5-cyano-4-morpholinophenyl)(2,2,2-trifluoroethyl)amino)phenyl)quinoxalin-2-yl)methanesulfonamide] | < 500 nM
15 | CS(=O)(=O)Nc1cc2cnn(Cc3ccc(Oc4cc(Cl)c(OC5CC5)c(C#N)c4)cc3)c2cn1 [Compound A225] | 500 to 2000 nM
16 | CS(=O)(=O)Nc1cnc2cc(-c3ccc(Nc4cc(Cl)c(OC5CC5)c(C#N)c4)cc3)ccc2n1 [Compound A226] | 500 to 2000 nM
17 | CS(=O)(=O)Nc1cc2cn(Cc3ccc(Oc4cc(Cl)c(OC5CC5)c(C#N)c4)cc3)nc2cn1 [Compound A227] | 500 to 2000 nM
18 | CS(=O)(=O)NC12CC(COc3ccc(Oc4cc(Cl)c(OC5CC5)c(C#N)c4)cc3)(C1)C2 [Compound A228, N-(3-((4-(3-chloro-5-cyano-4-cyclopropoxyphenoxy)phenoxy)methyl)bicyclo[1.1.1]pentan-1-yl)methanesulfonamide] | > 2000 nM

Row | Structure (SMILES) | IC50
19 | CS(=O)(=O)Nc1cncc(N2CCN(c3ccc(Oc4cc(Cl)c(OC5CC5)c(C#N)c4)cc3)CC2)n1 [Compound A229] | > 2000 nM
20 | CS(=O)(=O)Nc1nccc(N2CCN(c3ccc(Oc4cc(Cl)c(OC5CC5)c(C#N)c4)cc3)CC2)n1 [Compound A230] | < 500 nM
21 | CS(=O)(=O)Nc1cc2n(n1)CCN(c1ccc(Oc3cc(Cl)c(OC4CC4)c(C#N)c3)cc1)C2 [Compound A231] | > 2000 nM
22 | CS(=O)(=O)Nc1cncc(N2CC(c3ccc(Oc4cc(Cl)c(OC5CC5)c(C#N)c4)cc3)C2)n1 [Compound A232] | 500 to 2000 nM
23 | CS(=O)(=O)Nc1cnc2cc(-c3ccc(N(CC(F)(F)F)c4cnc(N5CCOCC5)c(C#N)c4)cc3)ccc2n1 [Compound A233] | 500 to 2000 nM
24 | CS(=O)(=O)NC12CC(COc3ccc(N(CC(F)(F)F)c4cnc(OC5CC5)c(C#N)c4)cc3)(C1)C2 [Compound A234] | 500 to 2000 nM
25 | CS(=O)(=O)NC12CC(COc3ccc(N(CC(F)(F)F)c4cnc(NC5CC5)c(C#N)c4)cc3)(C1)C2 [Compound A235] | > 2000 nM
26 | CS(=O)(=O)NC12CC(COc3ccc(N(CC(F)(F)F)c4cc(Cl)c(OC5CC5)c(C#N)c4)cc3)(C1)C2 [Compound A236, N-(3-((4-((3-chloro-5-cyano-4-cyclopropoxyphenyl)(2,2,2-trifluoroethyl)amino)phenoxy)methyl)bicyclo[1.1.1]pentan-1-yl)methanesulfonamide] | < 500 nM
27 | CN(c1ccc(OCc2ccnc(NS(C)(=O)=O)n2)cc1)c1cc(Cl)c(OC2CC2)c(C#N)c1 [Compound A237] | 500 to 2000 nM
28 | CS(=O)(=O)Nc1nccc(COc2ccc(N(CC(F)(F)F)c3cc(Cl)c(OCCCl)c(C#N)c3)cc2)n1 [Compound A238] | < 500 nM
29 | CN(c1cnc2cc(-c3ccc(N(CC(F)(F)F)c4cnc(OC5CC5)c(C#N)c4)cc3)ccc2n1)S(C)(=O)=O [Compound A239] | < 500 nM
30 | N#Cc1cc(Oc2ccc(-c3ccc4nc(N5CCNCC5)cnc4c3)cc2)cc(Cl)c1OC1CC1 [Compound A240] | > 2000 nM
31 | N#Cc1cc(Oc2ccc(-c3ccc4nc(N5CCNCC5)ncc4c3)cc2)cc(Cl)c1OC1CC1 [Compound A241] | > 2000 nM
32 | CC(=O)N1CCN(c2cnc3cc(-c4ccc(Oc5cc(Cl)c(OC6CC6)c(C#N)c5)cc4)ccc3n2)CC1 [Compound A242] | 500 to 2000 nM
33 | CC(C)(c1ccc(OCc2ccnc(N3CCNCC3)n2)cc1)c1cc(Cl)c(OC2CC2)c(C#N)c1 [Compound A243] | 500 to 2000 nM
34 | CC(=O)N1CCN(c2nccc(COc3ccc(C(C)(C)c4cc(Cl)c(OC5CC5)c(C#N)c4)cc3)n2)CC1 [Compound A244] | < 500 nM
35 | CC(=O)N1CCN(c2nccc(COc3ccc(N(CC(F)(F)F)c4cc(Cl)c(OC5CC5)c(C#N)c4)cc3)n2)CC1 [Compound A245] | < 500 nM

Test system: not listed separately
Assay: Microsomal stability assay, liver microsome half-life (human)
Format: in vitro ADME
Details: pH 7.4; human liver microsomes 0.5 mg/mL + NADPH, 1 μM compound, 37° C; read-out: Liver microsome + NADPH T½ (min) Human
Source text: Microsomal Stability Assay: Microsomal stability assay is a widely used in vitro model to characterize the metabolic conversion by phase I enzymes, such as cytochrome P450 (CYP) enzymes. Since metabolism is known to be highly variable in different species, microsomal stability assay is commonly run in multiple species. Metabolic stability of testing compound can be evaluated using human, rat, mouse, or other animal liver or intestine microsomes to predict intrinsic clearance.
The assay was carried out in 96-well microtiter plates at 37° C. Reaction mixtures (25 μL) contained a final concentration of 1 μM test compound, 0.5 mg/mL liver microsomes protein, and 1 mM NADPH and/or 1 mM UDPGA (with alamethicin) in 100 mM potassium phosphate, pH 7.4 buffer with 3 mM MgCl2. The incubation was done with N=1, but duplicate incubation at each time point can be prepared if necessary. At each of the time points (for example, 0, 15, 30, and 60 minutes), 150 μL of quench solution (100% acetonitrile with 0.1% formic acid) with internal standard was transferred to each well. Besides the zero minute controls, mixtures containing the same components except the NADPH can also be prepared as the negative control. Verapamil was included as a positive control to verify assay performance. Plates were sealed, vortexed, and centrifuged at 4° C. for 15 minutes at 4000 rpm. The supernatant is transferred to fresh plates for LC/MS/MS analysis.
Summarized conditions: [Compound]=1 μM, [LM]=0.5 mg/mL, [NADPH]=1 mM and/or [UDPGA]=1 mM, Buffer=100 mM Potassium Phosphate, pH 7.4 with 3 mM MgCl2, Time=0, 15, 30, and 60 min, and Temperature=37° C.
All samples were analyzed on LC/MS/MS using an AB Sciex API 4000 instrument, coupled to a Shimadzu LC-20AD LC Pump system. Analytical samples were separated using a Waters Atlantis T3 dC18 reverse phase HPLC column (20 mm×2.1 mm) at a flow rate of 0.5 mL/min. The mobile phase consisted of 0.1% formic acid in water (solvent A) and 0.1% formic acid in 100% acetonitrile (solvent B).
The extent of metabolism is calculated as the disappearance of the test compound, compared to the 0-min time incubation. Initial rates are calculated for the compound concentration and used to determine half-life (t1/2).

Row | Structure (SMILES) | half-life at 1 μM
36 | CC(C)(c1ccc(OC[C@H](O)CNS(C)(=O)=O)cc1)c1cc(Cl)c(OC[C@H](O)CCl)c(Cl)c1 [X, reference compound] | > 120 min
